Assay results reported in ChEMBL document CHEMBL1201862, “PubChem BioAssay data set” (2004).
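Each compound was tested at five concentrations against cells in 96-well plates for 48 hours. The concentration for 50% growth inhibition is given as GI50.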 Calls of active or inactive are those of the source. Rule as the data show it: active = GI50 up to about 1.1 µM and inactive = higher.

Key:
Experiment in all cases: DTP human tumour cell line panel, 48 h
MDA-MB-231 = test system: MDA-MB-231
COLO 205 = test system: COLO 205
K562 = test system: K562
NCI-H23 = test system: NCI-H23
SF-539 = test system: SF-539
IGROV-1 = test system: IGROV-1
MOLT-4 = test system: MOLT-4
NCI-H460 = test system: NCI-H460
T47D = test system: T47D
TK-10 = test system: TK-10
Malme-3M = test system: Malme-3M
HCC 2998 = test system: HCC 2998
LOX IMVI = test system: LOX IMVI
DU-145 = test system: DU-145
786-0 = test system: 786-0
CAKI-1 = test system: CAKI-1
ACHN = test system: ACHN
NCI-H226 = test system: NCI-H226
NCI/ADR-RES = test system: NCI/ADR-RES
NCI-H522 = test system: NCI-H522
PC-3 = test system: PC-3
SF-295 = test system: SF-295
RXF 393 = test system: RXF 393
HT-29 = test system: HT-29
KM12 = test system: KM12
OVCAR-4 = test system: OVCAR-4
UACC-257 = test system: UACC-257
HOP-62 = test system: HOP-62
HOP-92 = test system: HOP-92
A549 = test system: A549
SR = test system: SR
M14 = test system: M14
UACC-62 = test system: UACC-62
SK-MEL-2 = test system: SK-MEL-2
SK-MEL-28 = test system: SK-MEL-28
UO-31 = test system: UO-31
HCT-116 = test system: HCT-116
EKVX = test system: EKVX
RPMI-8226 = test system: RPMI-8226
OVCAR-3 = test system: OVCAR-3
SF-268 = test system: SF-268
A498 = test system: A498
MDA-N = test system: MDA-N
SNB-19 = test system: SNB-19
SK-OV-3 = test system: SK-OV-3
CCRF-CEM = test system: CCRF-CEM
OVCAR-5 = test system: OVCAR-5
SN12C = test system: SN12C
SK-MEL-5 = test system: SK-MEL-5
Hs-578T = test system: Hs-578T
U-251 = test system: U-251
MDA-MB-435 = test system: MDA-MB-435
HCT-15 = test system: HCT-15
OVCAR-8 = test system: OVCAR-8
SW-620 = test system: SW-620
MCF7 = test system: MCF7
SNB-75 = test system: SNB-75
HL-60 = test system: HL-60

O=[N+]([O-])C(/C=C(\Cl)n1nnc2ccccc21)=C(/Cl)n1nnc2ccccc21
GI50 (MDA-MB-231): > 100 µM (inactive)
GI50 (COLO 205): > 100 µM (inactive)
GI50 (K562): > 100 µM (inactive)
GI50 (NCI-H23): > 100 µM (inactive)
GI50 (SF-539): > 100 µM (inactive)
GI50 (IGROV-1): > 100 µM (inactive)
GI50 (MOLT-4): > 100 µM (inactive)
GI50 (NCI-H460): > 100 µM (inactive)
GI50 (T47D): > 100 µM (inactive)
GI50 (TK-10): > 100 µM (inactive)
GI50 (Malme-3M): > 100 µM (inactive)
GI50 (HCC 2998): > 100 µM (inactive)
GI50 (LOX IMVI): > 100 µM (inactive)
GI50 (DU-145): > 100 µM (inactive)
GI50 (786-0): > 100 µM (inactive)
GI50 (CAKI-1): > 100 µM (inactive)
GI50 (ACHN): > 100 µM (inactive)
GI50 (NCI-H226): > 100 µM (inactive)
GI50 (NCI/ADR-RES): > 100 µM (inactive)
GI50 (NCI-H522): > 100 µM (inactive)
GI50 (PC-3): > 100 µM (inactive)
GI50 (SF-295): > 100 µM (inactive)
GI50 (RXF 393): > 100 µM (inactive)
GI50 (HT-29): > 100 µM (inactive)
GI50 (KM12): > 100 µM (inactive)
GI50 (OVCAR-4): > 100 µM (inactive)
GI50 (UACC-257): > 100 µM (inactive)
GI50 (HOP-62): > 100 µM (inactive)
GI50 (HOP-92): > 100 µM (inactive)
GI50 (A549): > 100 µM (inactive)
GI50 (SR): > 100 µM (inactive)
GI50 (M14): > 100 µM (inactive)
GI50 (UACC-62): > 100 µM (inactive)
GI50 (SK-MEL-2): > 100 µM (inactive)
GI50 (SK-MEL-28): > 100 µM (inactive)
GI50 (UO-31): > 100 µM (inactive)
GI50 (HCT-116): > 100 µM (inactive)
GI50 (EKVX): > 100 µM (inactive)
GI50 (RPMI-8226): > 100 µM (inactive)
GI50 (OVCAR-3): > 100 µM (inactive)
GI50 (SF-268): > 100 µM (inactive)
GI50 (A498): > 100 µM (inactive)
GI50 (MDA-N): > 100 µM (inactive)
GI50 (SNB-19): > 100 µM (inactive)
GI50 (SK-OV-3): > 100 µM (inactive)
GI50 (CCRF-CEM): 76.4 µM (inactive)
GI50 (OVCAR-5): > 100 µM (inactive)
GI50 (SN12C): > 100 µM (inactive)
GI50 (SK-MEL-5): > 100 µM (inactive)
GI50 (Hs-578T): > 100 µM (inactive)
GI50 (U-251): > 100 µM (inactive)
GI50 (MDA-MB-435): > 100 µM (inactive)
GI50 (HCT-15): > 100 µM

c1ccc2c(Nc3ccc(Oc4ccc(Nc5c6ccccc6nc6ccccc56)cc4)cc3)c3ccccc3nc2c1
GI50 (COLO 205): 0.815 µM (active)
GI50 (OVCAR-8): 0.139 µM (active)
GI50 (NCI-H23): 0.181 µM (active)
GI50 (SW-620): 0.0649 µM (active)
GI50 (NCI-H460): 0.618 µM (active)
GI50 (MCF7): 0.0942 µM (active)
GI50 (T47D): 0.556 µM (active)
GI50 (TK-10): 1.19 µM (inactive)
GI50 (Malme-3M): 1.73 µM (inactive)
GI50 (HCC 2998): < 0.01 µM (active)
GI50 (LOX IMVI): 0.792 µM (active)
GI50 (DU-145): 0.277 µM (active)
GI50 (786-0): 0.0504 µM (active)
GI50 (CAKI-1): 1.63 µM (inactive)
GI50 (NCI-H226): 1.72 µM (inactive)
GI50 (NCI/ADR-RES): 0.0655 µM (active)
GI50 (SNB-75): 0.436 µM (active)
GI50 (NCI-H522): 0.665 µM (active)
GI50 (PC-3): 1.6 µM (inactive)
GI50 (SF-295): 1.67 µM (inactive)
GI50 (RXF 393): 2.4 µM (inactive)
GI50 (OVCAR-4): 0.0668 µM (active)
GI50 (HOP-92): 1.83 µM (inactive)
GI50 (M14): 0.0925 µM (active)
GI50 (SK-MEL-2): 1.96 µM (inactive)
GI50 (SK-MEL-28): 0.102 µM (active)
GI50 (EKVX): 1.5 µM (inactive)
GI50 (OVCAR-3): 0.0659 µM (active)
GI50 (SF-268): 1.57 µM (inactive)
GI50 (A498): 1.85 µM (inactive)
GI50 (SNB-19): 0.299 µM (active)
GI50 (SK-OV-3): 1.72 µM (inactive)
GI50 (OVCAR-5): 0.528 µM (active)
GI50 (SK-MEL-5): 1.57 µM (inactive)
GI50 (Hs-578T): 2.21 µM (inactive)
GI50 (MDA-MB-435): 0.0647 µM (active)
GI50 (HL-60): 0.547 µM (active)

O=C1C(Cl)=C(N2CCN(CCOCCO)CC2)C(=O)c2c(O)ccc(O)c21
GI50 (SF-539): 1.75 µM (inactive)
GI50 (NCI-H460): 1.98 µM (inactive)
GI50 (T47D): 0.264 µM (active)
GI50 (HCC 2998): 1.83 µM (inactive)
GI50 (DU-145): 1.82 µM (inactive)
GI50 (NCI-H226): 1.89 µM (inactive)
GI50 (SNB-75): 1.6 µM (inactive)
GI50 (HOP-92): 0.237 µM (active)
GI50 (A549): 2.01 µM (inactive)
GI50 (OVCAR-5): 1.87 µM (inactive)
GI50 (HCT-15): 0.227 µM

CCOC(=O)C1(C(=O)OCC)CCC(C(OC)OC)C(CC(=O)OC)C1 (centres undefined)
GI50 (COLO 205): > 10 µM (inactive)
GI50 (K562): > 10 µM (inactive)
GI50 (NCI-H23): > 10 µM (inactive)
GI50 (IGROV-1): > 10 µM (inactive)
GI50 (SW-620): > 10 µM (inactive)
GI50 (MOLT-4): > 10 µM (inactive)
GI50 (NCI-H460): > 10 µM (inactive)
GI50 (MCF7): > 10 µM (inactive)
GI50 (T47D): > 10 µM (inactive)
GI50 (Malme-3M): > 10 µM (inactive)
GI50 (786-0): > 10 µM (inactive)
GI50 (CAKI-1): > 10 µM (inactive)
GI50 (ACHN): > 10 µM (inactive)
GI50 (NCI/ADR-RES): > 10 µM (inactive)
GI50 (SNB-75): > 10 µM (inactive)
GI50 (RXF 393): > 10 µM (inactive)
GI50 (OVCAR-4): > 10 µM (inactive)
GI50 (HOP-62): > 10 µM (inactive)
GI50 (HOP-92): > 10 µM (inactive)
GI50 (A549): > 10 µM (inactive)
GI50 (SR): > 10 µM (inactive)
GI50 (M14): > 10 µM (inactive)
GI50 (UACC-62): > 10 µM (inactive)
GI50 (SK-MEL-2): > 10 µM (inactive)
GI50 (SK-MEL-28): > 10 µM (inactive)
GI50 (RPMI-8226): > 10 µM (inactive)
GI50 (SF-268): > 10 µM (inactive)
GI50 (SK-OV-3): > 10 µM (inactive)
GI50 (CCRF-CEM): > 10 µM (inactive)
GI50 (SK-MEL-5): > 10 µM (inactive)
GI50 (U-251): > 10 µM (inactive)
GI50 (MDA-MB-435): > 10 µM (inactive)
GI50 (HL-60): > 10 µM (inactive)
